From patent publication US6897198B2, “Method of treatment with combinations of statin and aryl-substituted propanolamine derivatives” (Aventis Pharma Deutschland GmbH, priority 1998, dated 2005)

What was measured:
[1] = molecular target: T1, Na+-dependent bile acid transport system (Oryctolagus cuniculus, UniProt Q28727); test: Inhibition of Na+-dependent [3H]-taurocholate uptake in rabbit ileum cuticular layer membrane vesicles; type: biochemical; conditions: Table 1, 50 μM taurocholate, incubation normally 1 minute
T1 construct: Cuticular layer membrane vesicles were prepared from ileum cells by the so-called Mg^2+ precipitation method; from tissue; host or cells: terminal ileum of male New Zealand rabbits (brush-border / cuticular layer membrane vesicles)
T1 sequence (Q28727 1-347): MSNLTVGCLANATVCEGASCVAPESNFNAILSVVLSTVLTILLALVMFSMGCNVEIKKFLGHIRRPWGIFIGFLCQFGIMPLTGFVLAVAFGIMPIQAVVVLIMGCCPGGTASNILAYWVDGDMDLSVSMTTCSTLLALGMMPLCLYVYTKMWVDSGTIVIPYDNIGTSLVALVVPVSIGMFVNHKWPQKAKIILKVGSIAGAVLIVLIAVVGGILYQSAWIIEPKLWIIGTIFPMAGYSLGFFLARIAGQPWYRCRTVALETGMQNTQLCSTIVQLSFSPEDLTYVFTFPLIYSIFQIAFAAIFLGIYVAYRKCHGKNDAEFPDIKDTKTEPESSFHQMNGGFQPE
Protocol: The compounds according to the invention were tested in a biotest by determining the inhibition of [^3H]-taurocholate uptake in rabbit ileum cuticular layer membrane vesicles. The inhibitory test was carried out as follows:
1. Preparation of Rabbit Ileum Cuticular Layer Membrane Vesicles
Cuticular layer membrane vesicles were prepared from ileum cells by the so-called Mg^2+ precipitation method. Male New Zealand rabbits (body weight 2 to 2.5 kg) were sacrificed by intravenous injection of 0.5 ml T61®, an aqueous solution of 2.5 mg of tetracaine —HCl, 100 mg of embutramide and 25 mg of mebezonium iodide. The ileum was removed and washed with ice-cold physiological saline. The terminal 7/10th of the ileum (measured in the oral-rectal direction, i.e., the terminal ileum, which contains the active Na^+-dependent bile acid transport system) were used for preparing the cuticular layer membrane vesicles. The intestines were frozen in polymer bags at −80° C. under nitrogen. To prepare the membrane vesicles, the frozen intestines were defrosted in a water bath at 30° C. The mucosa was scraped off and suspended in 60 ml of ice-cold 12 mM TRIS/HCl buffer (pH 7.1)/300 mM mannitol, 5 mM EGTA/10 mg/l phenylmethylsulfonyl fluoride/1 mg/l soybean trypsin inhibitor (32 (U/mg)/0.5 mg/l bovine lung trypsin inhibitor (193 U/mg)/5 mg/l bacitracin. After the mixture had been diluted to 300 ml with ice-cold distilled water, it was homogenized in an Ultraturrax (rod 18, IKA Werk Staufen, Germany) for 3 minutes at 75% of maximum speed, with ice-cooling. After 3 ml of 1 M MgCl2 solution had been added (final concentration 10 mM), the mixture was left to stand at 0° C. for exactly 1 minute. The addition of Mg^2+ causes the cell membranes to aggregate and precipitate with the exception of the cuticular layer membranes. After centrifugation for 15 minutes at 3000×g (5000 rpm, SS-34 rotor), the precipitate was discarded, and the supernatant, which contains the cuticular layer membranes, was centrifuged for 30 minutes at 48,000×g (20,000 rpm, SS-34 rotor). The supernatant was discarded, and the precipitate was rehomogenized in 60 ml of 12 mM TRIS/HCl buffer (pH 7.1)/60 mM mannitol, 5 mM EGTA using a Potter Elvejhem homogenizer (Braun, Melsungen, 900 rpm, 10 strokes). After addition of 0.1 ml of 1 M MgCl2 solution and incubation for 15 minutes at 0° C., the mixture was again centrifuged for 15 minutes at 3000×g. The supernatant was subsequently centrifuged for a further 30 minutes at 48,000×g (20,000 rpm, SS-34 rotor). […]
The uptake of substrates into the above-described cuticular layer membrane vesicles was determined by means of the so-called membrane filtration technique. […]

gallstone-sensitive mice = test: Test for gallstone formation (cholesterol gallstone formation, lithogenic diet); type: in vivo; conditions: male C57L mice, 100 mg/kg/d (0.1% in the feed), 13 weeks, lithogenic diet alone 5/15
Protocol: Test for Gallstone Formation • 1. Test Substance, Dose and Application • Example 9 of Table 1 (=A1) 100 mg/kg/d 0.1% in the feed • 2. Aim
In this test, the cholesterol gallstone formation in gallstone-sensitive mice was investigated. • 3. Materials and Methods • 3.1 Animals and Housing
The experimental animals used are male C57L mice (Jackson Laboratories) with an average body weight of 25-30 g at the beginning of the adaptation.
The animals were randomly divided into 4 groups (n=10, groups 2 and 3 n=15). Starting at the beginning of the treatment, the mice were either fed a standard rodent feed by Altromin (group 1), or a lithogenic diet by Altromin (groups 2-4); this diet was composed as follows: 15% butter, 1% cholesterol, 50% sugar, 20% casein, 0.5% cholic acid, 5% mineral mix, 2.5% vitamin mix, 2% corn oil, corn starch to 100%. The animals were weighed weekly, and the food consumption was determined by continuous weighings before and after, whereby the dose was calculated. • 3.2. Final Examination
After 11 and 13 weeks, respectively, the animals of each group were sacrificed and the gallbladders subsequently prepared. Gallstones in the gallbladder were then recorded. The gallbladder was dissected, the weight was determined, and the composition of the bile and the gallstones was analyzed.

Row | Compound | Bio. Test (quotient of the IC50Na values of the reference substance taurochenodesoxycholate (TCDC) and the test substance) [1] | Frequency of gallstones (n/n) (gallstone-sensitive mice)
1 | O=C(NCCCNc1ccccc1[C@@H](Nc1ccccn1)[C@H](c1ccccn1)[C@H](O)c1ccccc1)[C@H](O)[C@@H](O)[C@H](O)[C@H](O)CO [Example 2] | 0.24 | 
2 | CC(=O)OC[C@@H](OC(C)=O)[C@@H](OC(C)=O)[C@H](OC(C)=O)[C@@H](OC(C)=O)C(=O)NCCCCCCCCCCC(=O)Nc1ccccc1[C@@H](Nc1ccccn1)[C@H](c1ccccn1)[C@H](O)c1ccccc1 [Example 8] | 0.83 | 
3 | O=C(CCCCCCCCCCNC(=O)[C@H](O)[C@@H](O)[C@H](O)[C@H](O)CO)Nc1ccccc1[C@@H](Nc1ccccn1)[C@H](c1ccccn1)[C@H](O)c1ccccc1 [Example 9] | 1.78 | 0/10
4 | O=C(CCC(=O)Nc1ccccc1[C@@H](Nc1ccccn1)[C@H](c1ccccn1)[C@H](O)c1ccccc1)NC[C@H](O)[C@@H](O)[C@H](O)[C@H](O)CO [Example 15] | 0.19 | 
